Molecular target: T1, human Fatty Acid Synthase (Homo sapiens, UniProt P49327)
T1 construct: made in house
Assay: Human FAS enzyme assay (decrease in NADPH fluorescence)
Assay type: biochemical
Settings: % inhibition at a concentration of 100 μmolar
Outline: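 In-house human FAS was preincubated with compound and NADPH for 15 min at room temperature in 0.1 M Tris pH 7.5 with EDTA, glutathione and BSA. Malonyl CoA and acetyl CoA (500 μM and 150 μM in the added mix) were then added for 60 min. IC50 came from time-zero-subtracted NADPH fluorescence (340/460 nm).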

T1 sequence (P49327 whole entry): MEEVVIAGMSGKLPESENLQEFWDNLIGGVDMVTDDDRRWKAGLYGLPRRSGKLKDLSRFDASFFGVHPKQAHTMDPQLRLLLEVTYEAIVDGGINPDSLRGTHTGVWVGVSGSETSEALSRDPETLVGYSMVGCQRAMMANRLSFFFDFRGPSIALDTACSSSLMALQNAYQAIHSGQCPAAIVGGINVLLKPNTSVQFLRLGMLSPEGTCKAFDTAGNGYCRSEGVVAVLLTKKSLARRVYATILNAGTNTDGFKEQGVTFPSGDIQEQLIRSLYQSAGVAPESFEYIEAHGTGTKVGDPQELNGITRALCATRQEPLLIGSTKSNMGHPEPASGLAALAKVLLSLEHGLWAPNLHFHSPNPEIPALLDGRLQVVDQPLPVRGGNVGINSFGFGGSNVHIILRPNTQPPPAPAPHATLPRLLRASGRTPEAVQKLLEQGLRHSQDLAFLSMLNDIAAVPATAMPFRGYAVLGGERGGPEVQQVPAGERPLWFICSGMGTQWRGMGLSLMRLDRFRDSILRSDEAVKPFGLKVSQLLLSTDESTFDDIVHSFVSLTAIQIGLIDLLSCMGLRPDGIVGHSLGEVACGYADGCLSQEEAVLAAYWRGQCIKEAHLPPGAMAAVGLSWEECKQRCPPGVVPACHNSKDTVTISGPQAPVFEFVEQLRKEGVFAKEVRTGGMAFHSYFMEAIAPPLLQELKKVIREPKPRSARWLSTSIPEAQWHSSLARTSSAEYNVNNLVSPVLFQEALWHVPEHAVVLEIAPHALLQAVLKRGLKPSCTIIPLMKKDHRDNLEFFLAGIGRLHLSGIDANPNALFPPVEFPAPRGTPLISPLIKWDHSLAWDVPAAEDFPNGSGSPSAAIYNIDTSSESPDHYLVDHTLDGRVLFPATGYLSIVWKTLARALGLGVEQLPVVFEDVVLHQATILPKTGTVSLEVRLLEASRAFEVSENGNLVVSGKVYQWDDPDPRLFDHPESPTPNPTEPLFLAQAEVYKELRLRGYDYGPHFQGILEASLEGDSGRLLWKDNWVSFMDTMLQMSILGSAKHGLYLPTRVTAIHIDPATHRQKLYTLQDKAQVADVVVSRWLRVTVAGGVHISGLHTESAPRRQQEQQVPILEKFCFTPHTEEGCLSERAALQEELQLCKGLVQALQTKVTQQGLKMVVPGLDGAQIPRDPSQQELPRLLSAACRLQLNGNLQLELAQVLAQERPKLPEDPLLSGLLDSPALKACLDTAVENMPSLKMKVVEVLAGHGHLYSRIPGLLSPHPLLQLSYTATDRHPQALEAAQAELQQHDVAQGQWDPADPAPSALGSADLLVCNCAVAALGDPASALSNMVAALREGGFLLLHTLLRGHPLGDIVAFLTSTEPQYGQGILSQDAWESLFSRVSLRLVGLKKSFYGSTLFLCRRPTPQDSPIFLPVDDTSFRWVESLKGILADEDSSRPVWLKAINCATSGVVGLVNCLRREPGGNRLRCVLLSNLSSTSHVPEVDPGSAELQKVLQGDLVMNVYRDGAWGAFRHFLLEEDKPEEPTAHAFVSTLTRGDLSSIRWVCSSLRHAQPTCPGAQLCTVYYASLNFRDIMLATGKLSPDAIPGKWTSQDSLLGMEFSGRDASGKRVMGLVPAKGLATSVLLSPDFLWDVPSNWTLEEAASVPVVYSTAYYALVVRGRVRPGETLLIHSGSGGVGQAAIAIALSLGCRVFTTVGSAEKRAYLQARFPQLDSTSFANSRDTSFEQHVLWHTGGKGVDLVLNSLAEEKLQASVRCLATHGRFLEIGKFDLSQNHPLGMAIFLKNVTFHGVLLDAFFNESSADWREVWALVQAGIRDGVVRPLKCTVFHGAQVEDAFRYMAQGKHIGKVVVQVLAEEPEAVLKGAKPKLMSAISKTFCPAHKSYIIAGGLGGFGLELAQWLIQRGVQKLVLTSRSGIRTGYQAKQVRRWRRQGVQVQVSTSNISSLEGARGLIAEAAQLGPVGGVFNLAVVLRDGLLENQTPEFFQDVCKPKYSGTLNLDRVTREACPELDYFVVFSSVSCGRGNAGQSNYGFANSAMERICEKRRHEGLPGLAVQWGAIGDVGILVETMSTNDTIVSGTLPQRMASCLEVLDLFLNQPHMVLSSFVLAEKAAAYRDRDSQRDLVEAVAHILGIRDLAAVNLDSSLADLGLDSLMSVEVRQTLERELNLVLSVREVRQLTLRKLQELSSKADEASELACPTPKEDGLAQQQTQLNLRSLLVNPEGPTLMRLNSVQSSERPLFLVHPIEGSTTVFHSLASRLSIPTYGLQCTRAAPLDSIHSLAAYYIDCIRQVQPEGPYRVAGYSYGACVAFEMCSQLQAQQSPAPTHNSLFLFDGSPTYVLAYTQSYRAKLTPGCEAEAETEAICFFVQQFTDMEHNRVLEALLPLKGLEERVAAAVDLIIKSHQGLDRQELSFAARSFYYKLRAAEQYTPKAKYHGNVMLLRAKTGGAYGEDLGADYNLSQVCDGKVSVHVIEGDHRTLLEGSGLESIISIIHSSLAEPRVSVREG

SMILES | inhibition at 100 µM [%]
Cc1ccc(C(=O)N2CCC(c3ccc(C#N)cc3)CC2)cc1NC(=O)N[C@@H](CO)C(N)=O [Example 192, (2S)-2-[[5-[4-(4-cyanophenyl)piperidine-1-carbonyl]-2-methyl-phenyl]carbamoylamino]-3-hydroxy-propanamide] | 85.1
Cc1ccc(C(=O)N2CCC(c3ccc(C#N)cc3)CC2)cc1NC(=O)N[C@H]1CC[C@H](O)CC1 [Example 193, 1-[5-[4-(4-cyanophenyl)piperidine-1-carbonyl]-2-methyl-phenyl]-3-(4-hydroxycyclohexyl)urea] | 85.8
Cc1ccc(C(=O)N2CCC(c3ccc(C#N)cc3)CC2)cc1NC(=O)NC1(CO)CCCC1 [Example 194, 1-[5-[4-(4-cyanophenyl)piperidine-1-carbonyl]-2-methyl-phenyl]-3-[1-(hydroxymethyl)cyclopentyl]urea] | 84.3
Cc1ccc(C(=O)N2CCC(c3ccc(C#N)cc3)CC2)cc1NC(=O)NCC(O)COc1ccccc1Cl (stereo not drawn) [Example 196, 3-[3-(2-chlorophenoxy)-2-hydroxy-propyl]-1-[5-[4-(4-cyanophenyl)piperidine-1-carbonyl]-2-methyl-phenyl]urea] | 91.7
Cc1ccc(C(=O)N2CCC(c3ccc(C#N)cc3)CC2)cc1NC(=O)NC12CC3CC(CC(O)(C3)C1)C2 [Example 197, 1-[5-[4-(4-cyanophenyl)piperidine-1-carbonyl]-2-methyl-phenyl]-3-(3-hydroxy-1-adamantyl)urea] | 84.4
COC[C@@H](CO)NC(=O)Nc1cc(C(=O)N2CCC(c3ccc(C#N)cc3)CC2)ccc1C [Example 198, 1-[5-[4-(4-cyanophenyl)piperidine-1-carbonyl]-2-methyl-phenyl]-3-[(2R)-1-hydroxy-3-methoxy-propan-2-yl]urea] | 87.9
Cc1ccc(C(=O)N2CCC(c3ccc(C#N)cc3)CC2)cc1NC(=O)N[C@@H]1CCOC1 [Example 199, 1-[5-[4-(4-cyanophenyl)piperidine-1-carbonyl]-2-methyl-phenyl]-3-[(3R)-oxolan-3-yl]urea] | 96.3
Cc1ccc(C(=O)N2CCC(c3ccc(C#N)cc3)CC2)cc1NC(=O)NCCCc1cn[nH]c1C [Example 200, 1-[5-[4-(4-cyanophenyl)piperidine-1-carbonyl]-2-methyl-phenyl]-3-[3-(3-methyl-2H-pyrazol-4-yl)propyl]urea] | 91.8
CCc1ccc(C(=O)N2CCC(c3ccc(C#N)cc3)CC2)cc1NC(=O)NC(C)C [Example 201, 1-[5-[4-(4-cyanophenyl)piperidine-1-carbonyl]-2-ethyl-phenyl]-3-propan-2-yl-urea] | 94
Cc1ccc(C(=O)N2CCC(c3ccc(C#N)cc3)CC2)cc1NC(=O)NCC(C)(C)NS(C)(=O)=O [Example 202, 1-[5-[4-(4-cyanophenyl)piperidine-1-carbonyl]-2-methyl-phenyl]-3-(2-methanesulfonamido-2-methyl-propyl)urea] | 97.3
Cc1ccc(C(=O)N2CCC(c3ccc(C#N)cc3)CC2)cc1NC(=O)NCC(C)(C)N [Example 203, 3-(2-amino-2-methyl-propyl)-1-[5-[4-(4-cyanophenyl)piperidine-1-carbonyl]-2-methyl-phenyl]urea] | 91
CCS(=O)(=O)NC(C)(C)CNC(=O)Nc1cc(C(=O)N2CCC(c3ccc(C#N)cc3)CC2)ccc1C [Example 204, 3-[5-[4-(4-cyanophenyl)piperidine-1-carbonyl]-2-methyl-phenyl]-1-[2-(ethylsulfonylamino)-2-methyl-propyl]urea] | 91
Cc1ccc(C(=O)N2CCC(c3ccc(C#N)cc3)CC2)cc1NC(=O)NCC(C)(C)NC(=O)C(C)(C)C [Example 205, N-[1-[[5-[4-(4-cyanophenyl)piperidine-1-carbonyl]-2-methyl-phenyl]carbamoylamino]-2-methyl-propan-2-yl]-2,2-dimethyl-propanamide] | 88.2
Cc1ccc(C(=O)N2CCC(c3ccc(C#N)cc3)CC2)cc1NC(=O)NCCCNC(=O)OC(C)(C)C [Example 206, tert-butyl N-[3-[[5-[4-(4-cyanophenyl)piperidine-1-carbonyl]-2-methyl-phenyl]carbamoylamino]propyl]carbamate] | 83.8
Cc1ccc(C(=O)N2CCC(c3ccc(C#N)cc3)CC2)cc1NC(=O)NCCCN [Example 207, 3-(3-aminopropyl)-1-[5-[4-(4-cyanophenyl)piperidine-1-carbonyl]-2-methyl-phenyl]urea] | 89.7
Cc1ccc(C(=O)N2CCC(c3ccc(C#N)cc3)CC2)cc1NC(=O)NC1CCN(C(=O)OC(C)(C)C)CC1 [Example 208, tert-butyl 4-[[5-[4-(4-cyanophenyl)piperidine-1-carbonyl]-2-methyl-phenyl]carbamoylamino]piperidine-1-carboxylate] | 84.9
Cc1ccc(C(=O)N2CCC(c3ccc(C#N)cc3)CC2)cc1NC(=O)N[C@@H]1CCN(C(=O)OC(C)(C)C)C1 [Example 209, tert-butyl (3R)-3-[[5-[4-(4-cyanophenyl)piperidine-1-carbonyl]-2-methyl-phenyl]carbamoylamino]pyrrolidine-1-carboxylate] | 89.7

SMILES | inhibition at 100 µM [%]
Cc1ccc(C(=O)N2CCC(c3ccc(C#N)cc3)CC2)cc1NC(=O)N[C@H]1CCN(C(=O)OC(C)(C)C)C1 [Example 210, tert-butyl (3S)-3-[[5-[4-(4-cyanophenyl)piperidine-1-carbonyl]-2-methyl-phenyl]carbamoylamino]pyrrolidine-1-carboxylate] | 97.4
Cc1ccc(C(=O)N2CCC(c3ccc(C#N)cc3)CC2)cc1NC(=O)NC1CCNCC1 [Example 211, 1-[5-[4-(4-cyanophenyl)piperidine-1-carbonyl]-2-methyl-phenyl]-3-(4-piperidyl)urea] | 87.4
Cc1ccc(C(=O)N2CCC(c3ccc(C#N)cc3)CC2)cc1NC(=O)N[C@@H]1CCNC1 [Example 212, 1-[5-[4-(4-cyanophenyl)piperidine-1-carbonyl]-2-methyl-phenyl]-3-[(3R)-pyrrolidin-3-yl]urea] | 97
Cc1ccc(C(=O)N2CCC(c3ccc(C#N)cc3)CC2)cc1NC(=O)N[C@H]1CCNC1 [Example 213, 1-[5-[4-(4-cyanophenyl)piperidine-1-carbonyl]-2-methyl-phenyl]-3-[(3S)-pyrrolidin-3-yl]urea] | 88.6
Cc1ccc(C(=O)N2CCC(c3ccc(C#N)cc3)CC2)cc1NC(=O)NCCN(C)S(=O)(=O)C(C)C [Example 214, 1-[5-[4-(4-cyanophenyl)piperidine-1-carbonyl]-2-methyl-phenyl]-3-[2-(methyl-propan-2-ylsulfonyl-amino)ethyl]urea] | 89.8
Cc1ccc(C(=O)N2CCC(c3ccc(C#N)cc3)CC2)cc1NC(=O)NCCCNS(C)(=O)=O [Example 215, 1-[5-[4-(4-cyanophenyl)piperidine-1-carbonyl]-2-methyl-phenyl]-3-(3-methanesulfonamidopropyl)urea] | 100
CCS(=O)(=O)NCCCNC(=O)Nc1cc(C(=O)N2CCC(c3ccc(C#N)cc3)CC2)ccc1C [Example 216, 3-[5-[4-(4-cyanophenyl)piperidine-1-carbonyl]-2-methyl-phenyl]-1-[3-(ethylsulfonylamino)propyl]urea] | 92.4
Cc1ccc(C(=O)N2CCC(c3ccc(C#N)cc3)CC2)cc1NC(=O)NCCCNS(=O)(=O)C(C)C [Example 217, 1-[5-[4-(4-cyanophenyl)piperidine-1-carbonyl]-2-methyl-phenyl]-3-[3-(propan-2-ylsulfonylamino)propyl]urea] | 87
Cc1ccc(C(=O)N2CCC(c3ccc(C#N)cc3)CC2)cc1NC(=O)N[C@@H]1CCN(S(C)(=O)=O)C1 [Example 218, 1-[5-[4-(4-cyanophenyl)piperidine-1-carbonyl]-2-methyl-phenyl]-3-[(3R)-1-methylsulfonylpyrrolidin-3-yl]urea] | 84.4
CCS(=O)(=O)N1CC[C@@H](NC(=O)Nc2cc(C(=O)N3CCC(c4ccc(C#N)cc4)CC3)ccc2C)C1 [Example 219, 3-[5-[4-(4-cyanophenyl)piperidine-1-carbonyl]-2-methyl-phenyl]-1-[(3R)-1-ethylsulfonylpyrrolidin-3-yl]urea] | 88.8
CCC(=O)N1CC[C@H](NC(=O)Nc2cc(C(=O)N3CCC(c4ccc(C#N)cc4)CC3)ccc2C)C1 [Example 220, 3-[5-[4-(4-cyanophenyl)piperidine-1-carbonyl]-2-methyl-phenyl]-1-[(3S)-1-propanoylpyrrolidin-3-yl]urea] | 96.7
Cc1ccc(C(=O)N2CCC(c3ccc(C#N)cc3)CC2)cc1NC(=O)N[C@H]1CCN(S(C)(=O)=O)C1 [Example 221, 1-[5-[4-(4-cyanophenyl)piperidine-1-carbonyl]-2-methyl-phenyl]-3-[(3S)-1-methylsulfonylpyrrolidin-3-yl]urea] | 102
CCS(=O)(=O)N1CC[C@H](NC(=O)Nc2cc(C(=O)N3CCC(c4ccc(C#N)cc4)CC3)ccc2C)C1 [Example 222, 3-[5-[4-(4-cyanophenyl)piperidine-1-carbonyl]-2-methyl-phenyl]-1-[(3S)-1-ethylsulfonylpyrrolidin-3-yl]urea] | 90.7
Cc1ccc(C(=O)N2CCC(c3ccc(C#N)cc3)CC2)cc1NC(=O)NCCCS(C)(=O)=O [Example 223, 1-[5-[4-(4-cyanophenyl)piperidine-1-carbonyl]-2-methyl-phenyl]-3-(3-methylsulfonylpropyl)urea] | 92.8
N#Cc1ccc(C2CCN(C(=O)c3cc(NC(=O)NCc4ccccc4)ccc3F)CC2)cc1 [Example 224, 1-benzyl-3-[3-[4-(4-cyanophenyl)piperidine-1-carbonyl]-4-fluoro-phenyl]urea] | 71.9
Cc1ccc(C(=O)N2CCC(c3ccc(C#N)cc3)CC2)cc1NC(=O)NC1CC1 [Example 225, 1-[5-[4-(4-cyanophenyl)piperidine-1-carbonyl]-2-methyl-phenyl]-3-cyclopropyl-urea] | 89.9

Source: patent US20090118332A1, “Therapeutic Agents - 551” (AstraZeneca AB, priority 2006, published 2009)
